# Values joined by “and” are separate entries in the source; they are usually repeats but may differ in a detail not shown here. Identical values can stand only once. “Also recorded” adds a separate entry of the source.
# Legend:
# Aβ42 = biological target: T1, Aβ42 (Homo sapiens, UniProt P05067); experiment: Lipid binding assay: Aβ42-FAM binding to plate-bound amine-containing lipids
# T1 construct: SensoLyte Fluorescent β-Amyloid1-42 Sampler Kit, Anaspec; purchased Anaspec
# Source text: Maleic Anhydride Activated plates (Pierce Amine-binding, 96-well plates, Thermo Scientific) were washed in wash buffer (PBS: Phosphate buffered saline, 0.15 M sodium chloride, pH 7.2 containing 0.05% Tween-20 Detergent, PBST, Thermo Scientific) 4 times to activate reactive maleic anhydride functional group. Amine containing lipids were PE containing docosahexaenoyl (22:6) and stearoyl (18:0) acyl chains (22:6/18:0 PE) or two stearoyl acyl chains (di18:0 PE) were from Avanti Polar Lipids. 22:6/18:0 PE was obtained in chloroform, dried down and solubilized at 200 pmol/μL in 1% n-octylglucoside (NOG, Santa Cruz) in PBS and sonicated for […]. di18:0 PE was obtained as a powder, solubilized at 200 pmol/μl in 1% NOG and bath sonicated for 5 minutes. Lipids were incubated at a volume of 100 μL in activated maleic anhydride plates at increasing concentration at 4° C. in PBS/1% NOG. After incubation, lipids were removed and SuperBlock Blocking Buffer/PBS (Thermo) was added at a volume of […] for 1 hour at room temperature. Plates were then washed 4 times with PBST (Thermo Scientific). Fluorescently labeled amyloid β-peptide (SensoLyte Fluorescent β-Amyloid1-42 Sampler Kit, Anaspec) was prepared with […], Component B, Solvent for β-amyloid (Anaspec) as per the commercial protocol and then diluted in deionized water to a concentration of 100 μM. […] Plates were then washed 4 times in PBST and fluorescence was detected using Tecan Infinite 200 at wavelengths 494/521 (excitation, emission) using the Optimal Gain setting.
# Assays were done in triplicate wells and reported as mean+/−standard error. Binding kinetics and best fit curve fitting were accomplished using Prism Graphpad software.
# Lipid containing long chain polyunsaturated fatty acid 22:6, docosahexaenoic acid (DHA) and an amine containing headgroup, phosphatidylethanoloamine (PE) was bound to maleic anhydride activated plates which bind to free primary amine functional groups at neutral and alkaline pH. […] Specific binding was calculated by subtracting background binding of di18:0 PE.
# APPsw+ mice [1] = experiment: Nesting behavior after intranasal treatment; format: in vivo; conditions: 10 days intranasal low dose 0.5 mg/kg every other day, vs saline treated APPsw+, FIG. 4A
# Method: SDPC was obtained from Avanti Polar Lipids (850472C) in chloroform, dried under vacuum conditions and resuspended in 0.9% saline (0.9% sodium chloride injection, USP, NDC 0409-7983-61, Hospira) containing 0.2% (weight:volume) methyl cellulose (average Mn 40,000, viscosity: 400 cP, CAS 9004-67-5, Sigma-Aldrich 274429) to aid in solubilization. A control solution of 0.9% saline containing 0.2% methyl cellulose was prepared at the same time without SDPC. A concentration of 3 mg/ml was used for doses 1-15 and 12 mg/ml was used for doses 16-18 (FIG. 3). Brief (3-5 minutes) bath sonication was used to improve solubility of 12 mg/ml concentration. Mice were treated for 10 days at a low dose of SDPC intranasally administered 2.5 uL each nostril (5 μL total dose) for 0.5 mg/kg every other day assuming average mouse weight of 30 g (0.03 kg) (FIG. 3). After 10 days, dose was escalated to 2 mg/kg every other day for an additional 19 days (total treatment time […]). Doses 16-18 were administered daily. Non-invasive behavioral testing using novel object recognition (118) and Nesting behavior (114) were used to assess behavioral function. Deficits were expected in APPsw+ (Tg) mice and compared to wild type littermates of the same age (13-14 months). […]
# APPsw+ mice [2] = experiment: Novel object recognition (NOR) training and testing, activity and exploration; format: in vivo
# Method: FIGS. 6A-6B. 30 days treatment with escalating dose SDPC. (A) Mice were placed in a box with two identical objects for 10 minutes on the training day 1. […] One object was replaced with a novel object for testing (NOD index). The same data is shown to scale in FIG. 6B (Testing (immediate)). Twenty-four hours later (Testing (24 hours)), mice were placed in the same context with one of the original identical objects (Familiar) and a second novel object (Novel). The time spent with each object was recorded. (B) For testing, novel object discrimination (NOD index) is assessed using the equation [(time novel)/(time familiar+time novel)]. NOD index of 0.5 represents equal time with each object. NOD>0.5 represents more time spent with novel object. Standard error is shown for means of Saline treated APPsw+(control) (n=4); SDPC treated APPsw+ (n=5) and wild type receiving no treatment (n=4). Significance was determined for […] using Student's t-test. SDPC was obtained from Avanti Polar Lipids (850472C) in chloroform, dried under vacuum conditions and resuspended in 0.9% saline (0.9% sodium chloride injection, USP, NDC 0409-7983-61, Hospira) containing 0.2% (weight:volume) methyl cellulose (average Mn 40,000, viscosity: 400 cP, CAS 9004-67-5, Sigma-Aldrich 274429) to aid in solubilization. A control solution of 0.9% saline containing 0.2% methyl cellulose was prepared at the same time without SDPC. A concentration of 3 mg/ml was used for doses 1-15 and 12 mg/ml was used for doses 16-18 (FIG. 3). Brief (3-5 minutes) bath sonication was used to improve solubility of 12 mg/ml concentration. Mice were treated for 10 days at a low dose of SDPC intranasally administered 2.5 uL each nostril (5 μL total dose) for 0.5 mg/kg every other day assuming average mouse weight of 30 g (0.03 kg) (FIG. 3). After 10 days, dose was escalated to 2 mg/kg every other day for an additional 19 days (total treatment time […]). Doses 16-18 were administered daily. Non-invasive behavioral testing using novel object recognition (118) and Nesting behavior (114) were used to assess behavioral function. Deficits were expected in APPsw+ (Tg) mice and compared to wild type littermates of the same age (13-14 months). APPsw+ mice were treated (Tx) with either control solution of 0.9% saline containing 0.2% methyl cellulose [Saline] or SDPC in 0.9% saline containing 0.2% methyl cellulose [SDPC]. […] Significant changes were seen using Student's t-test comparing SDPC and wild type (non-treated) [WT Ntx] and comparing saline and WT Ntx, but not when comparing SDPC and saline groups likely due to small sample size (n=4-5).
# APPsw+ mice [3] = experiment: Open Field testing; format: in vivo; conditions: 10 days intranasal low dose, following NOR testing; FIG. 4D
# Method: FIGS. 4A-4D. 10 days treatment with low dose SDPC. (A) After 10 days treatment (Tx) with low dose phosphatidylcholine (PC) containing docosahexaenoyl (22:6) and stearoyl (18:0) acyl chains, 18:0-22:6 PC; 1-stearoyl-2-docosahexaenoyl-sn-glycero-3-phosphocholine (CAS Number 59403-52-0; Synonyms: 1-octadecanoyl-2-(4Z,7Z,10Z,13Z,16Z,19Z-docosahexaenoyI)-sn-glycero-3-phosphocholine and PC(18:0/22:6(4Z,7Z,10Z,13Z,16Z,19Z))) (SDPC) intranasally, nesting score was assessed as described before (114). The number of nestlettes (from 3 initially placed in cage) was estimated and exact weight of remaining nestlettes was determined in grams (g) from initial 3 nestlettes (approximately 2 g). (B) Activity during novel object recognition (NOR) training was assessed after 10 days intranasal SDPC. Grooming behavior, free rearing, wall rearing and center crossing events are shown and were summed in total events. (C) Time spent with each identical object during NOR training. (D) Activity during Open Field testing 24 hours after NOR training (note, no difference in novel object discrimination (NOD) index was found. Standard error is shown for means of Saline treated APPsw+(control) (n=4); SDPC treated APPsw+ (n=5) and wild type receiving no treatment (n=4). Significance was determined for […] using Student's t-test. […]
# APPsw+ mice [4] = experiment: Novel object recognition (NOR) training and testing, activity and exploration; format: in vivo; conditions: 10 days intranasal low dose
# [5] = biological target: T2, Aβ42-FAM bound lipids containing 22:6 (Homo sapiens, UniProt P05067); experiment: Competition of Aβ42-FAM binding to plate-bound 22:6 lipid; conditions: competitor peptide 5×, 1 μM; FIG. 1C
# T2 construct: SensoLyte Fluorescent β-Amyloid1-42 Sampler Kit, Anaspec; purchased Anaspec
# Method: Scrambled Aβ or unlabeled Aβ42 peptides (Anaspec) were diluted to 100 μM as above and then diluted in SuperBlock Blocking buffer to 1 μM, incubated for 1 hour at room temperature. Plates were washed and FAM fluorescence was read as above. Lipid containing long chain polyunsaturated fatty acid 22:6, docosahexaenoic acid (DHA) and an amine containing headgroup, phosphatidylethanoloamine (PE) was bound to maleic anhydride activated plates which bind to free primary amine functional groups at neutral and alkaline pH. All binding and washing steps were done in PBS, PBST and SuperBlock PBS to maintain pH at 7.2. A control acyl chain lipid hypothesized not to bind to Aβ peptide was 18:0, stearic acid containing PE (di18:0). After lipids were bound and unreacted binding sites were blocked using SuperBlock, Aβ42 peptide fluorescently tagged with FAM (Anaspec) was incubated with lipid bound wells. […] The dissociation constant Kd was calculated to be 300 nM. Specific binding was calculated by subtracting background binding of di18:0 PE.
molecule,measurement,setting,value
"CC/C=C\C/C=C\C/C=C\C/C=C\C/C=C\C/C=C\CCC(=O)O [DHA, docosahexaenoic acid]",Kd,Aβ42; read-out: dissociation constant Kd of Aβ binding to DHA,~300 nM and 300 nM
"CC/C=C\C/C=C\C/C=C\C/C=C\C/C=C\C/C=C\CCC(=O)O[C@H](COC(=O)CCCCCCCCCCCCCCCCC)COP(=O)([O-])OCC[N+](C)(C)C [SDPC, 1-stearoyl-2-docosahexaenoyl-sn-glycero-3-phosphocholine]",nesting behavior,APPsw+ mice [1],trend toward improvement; also recorded: non-significant trend for improvement
same,discrimination of one displaced identical object (hippocampal function),"APPsw+ mice [2]; 30 days escalating dose, training day 2, FIG. 6A",no discrimination was determined
same,number of wall rears and total activity events,"APPsw+ mice [2]; 30 days intranasal escalated dose (to 2 mg/kg), SDPC vs saline treated APPsw+, FIG. 5",significant improvement
same,NOR deficits: time spent with a novel object,"APPsw+ mice [2]; 30 days intranasal escalated dose, FIG. 6",significant amelioration
same,novel object discrimination index (NOD index),"APPsw+ mice [2]; 30 days intranasal escalated dose, FIG. 6B",significant changes were not observed; also recorded: trend for amelioration
same,activity in the open field test,APPsw+ mice [3],continued improvement of activity level; also recorded: restored to the level of wild type non-treated mice
same,NOR discrimination (NOD index) 24 hours after training,APPsw+ mice [4],no discrimination was found; also recorded: no difference
same,"activity during NOR training (wall rearing, free rearing, total activity level)","APPsw+ mice [4]; vs saline treated APPsw+, FIG. 4B",trend toward improvement; also recorded: non-significant trend for improvement
same,exploration: time spent with identical objects during NOR training,APPsw+ mice [4]; FIG. 4C,trend toward improved exploratory behavior; also recorded: non-significant trend toward exploration activity
"CCCCCCCCCCCCCCCCCC(=O)OC[C@H](COP(=O)(O)OCCN)OC(=O)CCCCCCCCCCCCCCCCC [di18:0 PE, reference compound]",binding of Aβ42-FAM to plate-bound lipid,"Aβ42; FIGS. 1A and 1B, di18:0 at concentrations 10,000 pmol/well and below",very low binding activity
same,binding of Aβ42-FAM to plate-bound lipid at the highest concentrations,Aβ42; only at the highest concentrations of lipid,modest binding
unlabeled Aβ42 peptide: unlabeled Aβ42 peptide (Anaspec) used as competitor,competitive disruption of Aβ42-FAM binding to 22:6 lipid,[5],competitively disrupted

# Reference: US20170354669A1, “DISRUPTION OF THE INTERACTION BETWEEN AMYLOID BETA PEPTIDE AND DIETARY LIPIDS” (The Trustees of Columbia University in the City of New York, priority 2016, published 2017)
